Assay results: publication PMC8359193, “Summary of reference chemicals evaluated by the fish short‐term reproduction assay, OECD TG229, using Japanese Medaka, Oryzias latipes” (Journal of Applied Toxicology, 2021)

Assays:
[1] = tested on: Japanese medaka (Oryzias latipes); test: Fish short-term reproduction assay (FSTRA, OECD TG229), 21-day flow-through exposure; details: for Fertility rate (%) / Mortality (%) Female / Mortality (%) Male / Number of fertilized eggs / Number of total eggs / SSC Female / SSC Male / VTG (ng/mg of liver) Female / VTG (ng/mg of liver) Male: 21 days; for GSI Female / GSI Male / HSI Female / HSI Male / Length Female / Length Male / Weight Female / Weight Male: at completion of exposure
How it was run: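 Run to OECD TG229: mature NIES-R medaka pairs (3♂/3♀ per vessel, 4 vessels per treatment plus dilution water control) were dosed by continuous flow-through for 21 days. Test concentrations were spaced 2- to 5-fold. Daily spawned eggs were counted under the microscope for fertilized versus unfertilized.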

Japanese medaka = details: F0 generation, FLCT; ref MOE, 2006; cited from earlier work

C#C[C@]1(O)CC[C@H]2[C@@H]3CCc4cc(O)ccc4[C@H]3CC[C@@]21C [EE2, 17α‐Ethynylestradiol]
LOEC on VTG induction in male (in molarity) ([1]; hepatic VTG, 21-day exposure): 60 pM
LOEC for VTG induction in males ([1]; hepatic VTG, 21-day exposure, measured conc.): 17.8 ng/L
effect on male GSI, in words ([1]; highest concentration, 21-day exposure): significant decreasing
LOEC on male VTG induction: times smaller than the LOEC for CMP ([1]; in vivo): more than 8,000 times
Fertility rate (%) ([1]; measured conc. 17.8 ng/L): 84%
Mortality (%) Female ([1]; measured conc. 17.8 ng/L): 0%
Mortality (%) Male ([1]; measured conc. 17.8 ng/L): 0%
Number of fertilized eggs ([1]; measured conc. 17.8 ng/L): 15
Number of total eggs ([1]; measured conc. 17.8 ng/L): 18 ± 2.3 /female/day
SSC Female ([1]; measured conc. 17.8 ng/L): 0 ± 0
SSC Male ([1]; measured conc. 17.8 ng/L): 90 ± 8.1
VTG (ng/mg of liver) Female ([1]; measured conc. 17.8 ng/L): 2,170 ± 223 ng/mg of liver
VTG (ng/mg of liver) Male ([1]; measured conc. 17.8 ng/L): 68.3 ± 80.4 ng/mg of liver
GSI Female ([1]; measured conc. 17.8 ng/L): 10.0%
GSI Male ([1]; measured conc. 17.8 ng/L): 0.75%
HSI Female ([1]; measured conc. 17.8 ng/L): 4.2%
HSI Male ([1]; measured conc. 17.8 ng/L): 2.3%
Length Female ([1]; measured conc. 17.8 ng/L): 35.4 mm
Length Male ([1]; measured conc. 17.8 ng/L): 35.9 mm
Weight Female ([1]; measured conc. 17.8 ng/L): 516 mg
Weight Male ([1]; measured conc. 17.8 ng/L): 531 mg
Fertility rate (%) ([1]; measured conc. 84.9 ng/L): 88%
Mortality (%) Female ([1]; measured conc. 84.9 ng/L): 0%
Mortality (%) Male ([1]; measured conc. 84.9 ng/L): 0%
Number of fertilized eggs ([1]; measured conc. 84.9 ng/L): 15
Number of total eggs ([1]; measured conc. 84.9 ng/L): 17 ± 4.9 /female/day
SSC Female ([1]; measured conc. 84.9 ng/L): 0 ± 0
SSC Male ([1]; measured conc. 84.9 ng/L): 88 ± 5.7
VTG (ng/mg of liver) Female ([1]; measured conc. 84.9 ng/L): 3,840 ± 1,370 ng/mg of liver
VTG (ng/mg of liver) Male ([1]; measured conc. 84.9 ng/L): 10,900 ± 3,840 ng/mg of liver
GSI Female ([1]; measured conc. 84.9 ng/L): 9.5%
GSI Male ([1]; measured conc. 84.9 ng/L): 0.60%
HSI Female ([1]; measured conc. 84.9 ng/L): 3.7%
HSI Male ([1]; measured conc. 84.9 ng/L): 2.7%
Length Female ([1]; measured conc. 84.9 ng/L): 35.8 mm
Length Male ([1]; measured conc. 84.9 ng/L): 36.3 mm
Weight Female ([1]; measured conc. 84.9 ng/L): 498 mg
Weight Male ([1]; measured conc. 84.9 ng/L): 548 mg
Fertility rate (%) ([1]; measured conc. 424 ng/L): 73%
Mortality (%) Female ([1]; measured conc. 424 ng/L): 8%
Mortality (%) Male ([1]; measured conc. 424 ng/L): 33%
Number of fertilized eggs ([1]; measured conc. 424 ng/L): 8
Number of total eggs ([1]; measured conc. 424 ng/L): 10 ± 2.8 /female/day
SSC Female ([1]; measured conc. 424 ng/L): 0 ± 0
SSC Male ([1]; measured conc. 424 ng/L): 86 ± 6.7
VTG (ng/mg of liver) Female ([1]; measured conc. 424 ng/L): 15,100 ± 4,290 ng/mg of liver
VTG (ng/mg of liver) Male ([1]; measured conc. 424 ng/L): 23,900 ± 3,760 ng/mg of liver
GSI Female ([1]; measured conc. 424 ng/L): 10.4%
GSI Male ([1]; measured conc. 424 ng/L): 0.33%
HSI Female ([1]; measured conc. 424 ng/L): 3.8%
HSI Male ([1]; measured conc. 424 ng/L): 3.4%
Length Female ([1]; measured conc. 424 ng/L): 35.3 mm
Length Male ([1]; measured conc. 424 ng/L): 35.1 mm
Weight Female ([1]; measured conc. 424 ng/L): 507 mg
Weight Male ([1]; measured conc. 424 ng/L): 531 mg
effect on fecundity (number of total eggs), in words ([1]; within the test concentrations, 21-day exposure): significant decrease
concentration that significantly elevated male VTG and reduced fertility (Japanese medaka): 9.26 ng/L
